In US20130261108A1, “COMPOSITIONS AND METHODS FOR MODULATING FARNESOID X RECEPTORS” (IRM LLC, priority 2010, published 2013):
pEC50: −log10 of the molar value.

What follows are compounds tested against T1, human Farnesoid X Receptor (FXR) ligand binding domain (Homo sapiens, UniProt Q96RI1) (assay: Human GST-FXR LBD co-activator interaction assay (FXR HTRF assay)). Conditions: GST-FXR LBD with biotin-labeled SRC-1 peptide, FRET/HTRF, 2.5 hours at room temperature; response relative to GW4064; read-out: FXR coactivator interaction assay (HTRF) (EC50).
T1 construct: purchased Invitrogen
T1 sequence (Q96RI1 193-472 isoform Q96RI1-2): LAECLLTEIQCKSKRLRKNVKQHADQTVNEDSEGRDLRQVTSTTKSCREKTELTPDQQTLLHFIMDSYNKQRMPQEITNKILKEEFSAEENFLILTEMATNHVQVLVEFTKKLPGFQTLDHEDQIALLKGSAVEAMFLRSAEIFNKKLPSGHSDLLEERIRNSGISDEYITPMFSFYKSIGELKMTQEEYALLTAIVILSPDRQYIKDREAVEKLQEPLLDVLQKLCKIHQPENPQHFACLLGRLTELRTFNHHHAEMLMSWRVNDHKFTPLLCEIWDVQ
Format: biochemical
Description: Human GST-FXR LBD Co-Activator Interaction Assay.
The FXR HTRF assay is a biochemical assay measuring the interaction between FXR and a coactivator protein (SRC1). The ligand-induced interaction with a coactivator protein is a critical step in transcriptional activation by FXR. Thus, this is an assay designed to measure FXR agonist activity of compounds.
The ligand-dependent interaction between GST-FXR LBD and a peptide derived from Steroid Receptor Coactivator-1 (SRC-1) was monitored by Fluorescence Resonance Energy Transfer (FRET). […] Test compounds (in DMSO solution) and detection reagents (anti-GST-Cryptate labeled antibody and Streptavidin-XL665 conjugate; CisBio) were added in assay buffer containing 50 mM KF. Plates are incubated at room temperature in the dark for 2.5 hours before reading on an Envision (PerkinElmer) at 665 nm and 590 nm.
A negative control (without Streptavidin-XL665) was run with each assay and represented the background fluorescence. A reference FXR agonist, GW4064, was included in each experiment as positive control. The efficacy of each test compound was compared to that of GW4064. At each concentration, the relative activity of the test compound was expressed as Response %=(Rsample−RDMSO)/(Rpositive−RDMSO), where Rsample is the HTRF response (expressed in Delta F %) for the test compound, Rpositive is the maximal response for GW4064 at saturating concentrations, and RDMSO is the response for DMSO control. The EC50 values were calculated using GraphPad Prism (GraphPad Software) using non-linear regression curve fit (log(agonist) vs. response−variable slope (four parameters)).

`O=C(O)c1ccc2nc(N3CCC(OCc4c(C5CCCCC5C(F)(F)F)noc4C4CC4)CC3)sc2c1` (single isomer, unassigned) [5 (Diastereomer A)] was tested. Which pEC50 did it give?
Its pEC50 is 6.61.

How did the pEC50 turn out when `O=C(O)c1ccc2nc(N3CCC(OCc4c(COc5c(Cl)cccc5Cl)noc4C4CC4)CC3)sc2c1` [Example 10-1, 2-(4-{[5-cyclopropyl-3-(2,6-dichlorophenoxymethyl)-1,2-oxazol-4-yl]methoxy}piperidin-1-yl)-1,3-benzothiazole-6-carboxylic acid] was run?
Its pEC50 is 7.05.

With `CC1(c2onc(-c3ccccc3OC(F)(F)F)c2COC2CCN(c3nc4ccc(C(=O)O)cc4s3)CC2)CC1` [Example 2-2B, 2-(4-{[5-(1-methylcyclopropyl)-3-[2-(trifluoromethoxy)phenyl]-1,2-oxazol-4-yl]methoxy}piperidin-1-yl)-1,3-benzothiazole-6-carboxylic acid] as the compound, how does the pEC50 read?
The pEC50 was 7.01.

`COC(=O)CNC(=O)c1ccc2nc(N3CCC(OCc4c(-c5ccccc5OC(F)(F)F)noc4C4CC4)CC3)sc2c1` [Example 8-1A, Methyl 2-(2-(4-((5-cyclopropyl-3-(2-(trifluoromethoxy)phenyl)isoxazol-4-yl)methoxy)piperidin-1-yl)benzo[d]thiazole-6-carboxamido)acetate] was tested. Which pEC50 did it give?
Its pEC50 is 6.34.

How did the pEC50 turn out when `Clc1cccc(Cl)c1-c1noc(C2CC2)c1COC1CCN(c2nc3ccc(-c4nn[nH]n4)cc3s2)CC1` [Example 6-3, 4-(((1-(6-(2H-tetrazol-5-yl)benzo[d]thiazol-2-yl)piperidin-4-yl)oxy)methyl)-5-cyclopropyl-3-(2,6-dichlorophenyl)isoxazole] was run?
The pEC50 was 7.82.

How did the pEC50 turn out when `O=C(O)c1ccc2nc(N3CCC(OCc4c(-c5ccccc5OC(F)F)noc4C4CC4)CC3)sc2c1` [Example 2-8B, 2-[4-({5-cyclopropyl-3-[2-(difluoromethoxy)phenyl]-1,2-oxazol-4-yl}methoxy)piperidin-1-yl]-1,3-benzothiazole-6-carboxylic acid] was run?
The pEC50 was 7.35.

How did the pEC50 turn out when `CCOC(=O)c1ccc2nc(N3CCCC(OCc4c(-c5ccccc5C(F)(F)F)noc4C4CC4)CC3)sc2c1` (stereo not shown) [Example 3-2A, ethyl 2-[4-({5-cyclopropyl-3-[2-(trifluoromethyl)phenyl]-1,2-oxazol-4-yl}methoxy)azepan-1-yl]-1,3-benzothiazole-6-carboxylate] was run?
The pEC50 was 6.38.

`O=C(O)c1ccc2nc(N3CCC(OCc4c(-c5c(Cl)cccc5Cl)noc4C4CC4)CC3)sc2c1` [Example 2-13, 2-(4-{[5-cyclopropyl-3-(2,6-dichlorophenyl)-1,2-oxazol-4-yl]methoxy}piperidin-1-yl)-1,3-benzothiazole-6-carboxylic acid] was tested. Which pEC50 did it give?
The pEC50 was 8.00.

`NC(=O)c1ccc2nc(N3CCC(OCc4c(-c5ccccc5OC(F)(F)F)noc4C4CC4)CC3)sc2c1` [Example 7-2, 2-[4-({5-cyclopropyl-3-[2-(trifluoromethoxy)phenyl]-1,2-oxazol-4-yl}methoxy)piperidin-1-yl]-1,3-benzothiazole-6-carboxamide] was tested. Which pEC50 did it give?
Its pEC50 is 6.79.

`CCOC(=O)c1ccc2nc(N3CCC(OCc4c(-c5ccccc5OC(F)(F)F)noc4C4CC4)CC3)sc2c1` [Example 1-1A, Ethyl 2-(4-((5-cyclopropyl-3-(2-(trifluoromethoxy)phenyl)isoxazol-4-yl)methoxy)piperidin-1-yl)benzo[d]thiazole-6-carboxylate] was tested. Which pEC50 did it give?
The pEC50 was 6.03.

`CCOC(=O)c1ccc2nc(N3CCC(OCc4c(-c5ccccc5C(F)(F)F)noc4C4CC4)CC3)sc2c1` [Example 2-5A, ethyl 2-[4-({5-cyclopropyl-3-[2-(trifluoromethyl)phenyl]-1,2-oxazol-4-yl}methoxy)piperidin-1-yl]-1,3-benzothiazole-6-carboxylate] was tested. Which pEC50 did it give?
The pEC50 was 6.12.

How did the pEC50 turn out when `O=C(NCCS(=O)(=O)O)c1ccc2nc(N3CCC(OCc4c(-c5ccccc5OC(F)(F)F)noc4C4CC4)CC3)sc2c1` [Example 9, 2-(2-(4-((5-cyclopropyl-3-(2-(trifluoromethoxy)phenyl)isoxazol-4-yl)methoxy)piperidin-1-yl)benzo[d]thiazole-6-carboxamido)ethanesulfonic acid] was run?
Its pEC50 is 7.06.

With `O=C(O)c1cc(F)c2nc(N3CCC(OCc4c(-c5ccccc5OC(F)(F)F)noc4C4CC4)CC3)sc2c1` [Example 1-3, 2-(4-((5-cyclopropyl-3-(2-(trifluoromethoxy)phenyl)isoxazol-4-yl)methoxy)piperidin-1-yl)-4-fluorobenzo[d]thiazole-6-carboxylic acid] as the compound, how does the pEC50 read?
Its pEC50 is 7.77.

`O=C(O)c1ccc2nc(N3CCC(OCc4c(-c5ccccc5C(F)(F)F)noc4C4CC4)CC3)sc2c1` [Example 2-5B, 2-[4-({5-cyclopropyl-3-[2-(trifluoromethyl)phenyl]-1,2-oxazol-4-yl}methoxy)piperidin-1-yl]-1,3-benzothiazole-6-carboxylic acid] was tested. Which pEC50 did it give?
The pEC50 was 7.07.

With `O=C(O)c1cc(OC(F)(F)F)c2nc(N3CCC(OCc4c(-c5ccccc5OC(F)(F)F)noc4C4CC4)CC3)sc2c1` [Example 2-4, 2-[4-({5-cyclopropyl-3-[2-(trifluoromethoxy)phenyl]-1,2-oxazol-4-yl}methoxy)piperidin-1-yl]-4-(trifluoromethoxy)-1,3-benzothiazole-6-carboxylic acid] as the compound, how does the pEC50 read?
Its pEC50 is 8.30.

With `COc1cccc(C(F)(F)F)c1-c1noc(C2CC2)c1COC1CCN(c2nc3ccc(C(=O)O)cc3s2)CC1` [Example 2-7B, 2-[4-({5-cyclopropyl-3-[2-methoxy-6-(trifluoromethyl)phenyl]-1,2-oxazol-4-yl}methoxy)piperidin-1-yl]-1,3-benzothiazole-6-carboxylic acid] as the compound, how does the pEC50 read?
Its pEC50 is 7.12.

With `CCOC(=O)c1ccc2nc(N3CCC(OCc4c(-c5c(OC)cccc5C(F)(F)F)noc4C4CC4)CC3)sc2c1` [Example 2-7A, ethyl 2-[4-({5-cyclopropyl-3-[2-methoxy-6-(trifluoromethyl)phenyl]-1,2-oxazol-4-yl}methoxy)piperidin-1-yl]-1,3-benzothiazole-6-carboxylate] as the compound, how does the pEC50 read?
The pEC50 was 6.13.

How did the pEC50 turn out when `O=C(O)CNC(=O)c1ccc2nc(N3CCC(OCc4c(-c5ccccc5OC(F)(F)F)noc4C4CC4)CC3)sc2c1` [Example 8-1B, 2-(2-(4-((5-cyclopropyl-3-(2-(trifluoromethoxy)phenyl)isoxazol-4-yl)methoxy)piperidin-1-yl)benzo[d]thiazole-6-carboxamido)acetic acid] was run?
The pEC50 was 7.70.

`COc1cc(C(=O)O)cc2sc(N3CCC(OCc4c(-c5ccccc5OC(F)(F)F)noc4C4CC4)CC3)nc12` [Example 1-2, 2-(4-((5-cyclopropyl-3-(2-(trifluoromethoxy)phenyl)isoxazol-4-yl)methoxy)piperidin-1-yl)-4-methoxybenzo[d]thiazole-6-carboxylic acid] was tested. Which pEC50 did it give?
Its pEC50 is 7.92.

`O=C(O)c1ccc2nc(N3CCC(OCc4c(CC5CCCCC5)noc4C4CC4)CC3)sc2c1` [Example 10-2, 2-(4-{[3-(cyclohexylmethyl)-5-cyclopropyl-1,2-oxazol-4-yl]methoxy}piperidin-1-yl)-1,3-benzothiazole-6-carboxylic acid] was tested. Which pEC50 did it give?
Its pEC50 is 6.45.

`O=C(O)c1ccc2nc(N3CCCC(OCc4c(-c5ccccc5C(F)(F)F)noc4C4CC4)CC3)sc2c1` (stereo not shown) [Example 3-2B, 2-[4-({5-cyclopropyl-3-[2-(trifluoromethyl)phenyl]-1,2-oxazol-4-yl}methoxy)azepan-1-yl]-1,3-benzothiazole-6-carboxylic acid] was tested. Which pEC50 did it give?
The pEC50 was 8.10.

How did the pEC50 turn out when `CCOC(=O)c1ccc2nc(N3CCC(OCc4c(-c5c(Cl)cccc5C(F)(F)F)noc4C4CC4)CC3)sc2c1` [Example 2-6A, ethyl 2-[4-({3-[2-chloro-6-(trifluoromethyl)phenyl]-5-cyclopropyl-1,2-oxazol-4-yl}methoxy)piperidin-1-yl]-1,3-benzothiazole-6-carboxylate] was run?
The pEC50 was 6.40.

`CCOC(=O)c1ccc2nc(N3CCC(OCc4c(-c5c(F)cccc5Cl)noc4C4CC4)CC3)sc2c1` [Example 2-11A, ethyl 2-(4-{[3-(2-chloro-6-fluorophenyl)-5-cyclopropyl-1,2-oxazol-4-yl]methoxy}piperidin-1-yl)-1,3-benzothiazole-6-carboxylate] was tested. Which pEC50 did it give?
Its pEC50 is 6.25.

How did the pEC50 turn out when `O=C(O)c1ccc2nc(N3CCC(OCc4c(C5CC6CCC5C6)noc4C4CC4)CC3)sc2c1` (stereo not shown) [Example 2-17, 2-{4-[(3-{bicyclo[2.2.1]heptan-2-yl}-5-cyclopropyl-1,2-oxazol-4-yl)methoxy]piperidin-1-yl}-1,3-benzothiazole-6-carboxylic acid] was run?
The pEC50 was 6.37.

How did the pEC50 turn out when `O=C(O)c1ccc2nc(N3CCC(OCc4c(-c5c(Cl)cccc5C(F)(F)F)noc4C4CC4)CC3)sc2c1` [Example 2-6B, 2-[4-({3-[2-chloro-6-(trifluoromethyl)phenyl]-5-cyclopropyl-1,2-oxazol-4-yl}methoxy)piperidin-1-yl]-1,3-benzothiazole-6-carboxylic acid] was run?
The pEC50 was 6.70.
